In the supplement of paper PMC10307832:

How the values were obtained:
Experiment in all cases: relative viability (nuclei count vs DMSO), 5 days (fraction); higher = more cells survive
[1] = compound: CC1CC(=O)N(C2=CN=C(N=C2N1C3CCCC3)NC4=C(C=C(C=C4)C(=O)NC5CCN(CC5)C)OC)C [NPK76-II-72-1] + CCNC(=O)c1noc(-c2cc(C(C)C)c(O)cc2O)c1-c1ccc(CN2CCOCC2)cc1 [Luminespib] (partner 0.01 µM)
How it was run: (§1)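 Five library-drug doses in √10 steps were combined with a fixed anchor-drug dose, or a single drug was given alone, by pin tool to lung cancer cell lines in 1536-well plates the day after seeding. Nuclei were stained and counted after 5 days. Relative viability is the nuclei count in treated wells over that in vehicle wells, taken as the median of duplicate plates.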

[2] = compound: CC1CC(=O)N(C2=CN=C(N=C2N1C3CCCC3)NC4=C(C=C(C=C4)C(=O)NC5CCN(CC5)C)OC)C [NPK76-II-72-1] + CS(=O)(=O)N1CCN(Cc2cc3nc(-c4cccc5[nH]ncc45)nc(N4CCOCC4)c3s2)CC1 [Pictilisib] (partner 1 µM)
How it was run: as §1

[3] = compound: CC[C@@H]1C(=O)N(C)c2cnc(Nc3ccc(C(=O)NC4CCN(C)CC4)cc3OC)nc2N1C1CCCC1 [BI-2536] + COc1cccc2cc(-c3nc([C@H]4CC[C@H](C(=O)O)CC4)n4ncnc(N)c34)[nH]c12 [OSI-027] (partner 0.5 µM)
How it was run: as §1

[4] = compound: CC[C@@H]1C(=O)N(C)c2cnc(Nc3ccc(C(=O)NC4CCN(C)CC4)cc3OC)nc2N1C1CCCC1 [BI-2536] + NC(=O)Nc1cc(-c2cccc(F)c2)sc1C(=O)N[C@H]1CCCNC1 [AZD7762] (partner 0.2 µM)
How it was run: as §1

Row | Cell Line | relative viability ([1]; first compound 0.01 µM) | relative viability ([1]; first compound 0.03162 µM) | relative viability ([1]; first compound 0.1 µM) | relative viability ([1]; first compound 0.3162 µM) | relative viability ([1]; first compound 1 µM) | relative viability ([2]; first compound 0.01 µM) | relative viability ([2]; first compound 0.03162 µM) | relative viability ([2]; first compound 0.1 µM) | relative viability ([2]; first compound 0.3162 µM) | relative viability ([2]; first compound 1 µM) | relative viability ([3]; first compound 0.01 µM) | relative viability ([3]; first compound 0.03162 µM) | relative viability ([3]; first compound 0.1 µM) | relative viability ([3]; first compound 0.3162 µM) | relative viability ([3]; first compound 1 µM) | relative viability ([4]; first compound 0.01 µM) | relative viability ([4]; first compound 0.03162 µM) | relative viability ([4]; first compound 0.1 µM) | relative viability ([4]; first compound 0.3162 µM) | relative viability ([4]; first compound 1 µM)
1 | 201T | 1.05 | 1.04 | 0.998 | 1.04 | 1.09 | 0.642 | 0.618 | 0.66 | 0.7 | 0.677 | 0.331 | 0.715 | 0.728 | 0.0923 | 0.16 | 0.609 | 0.647 | 0.588 | 0.33 | 0.255
2 | A-427 | 0.827 | 1.06 | 0.94 | 0.905 | 1.02 | 0.747 | 0.796 | 0.685 | 0.632 | 0.706 | 0.464 | 0.471 | 0.251 | 0.12 | 0.119 | 0.728 | 0.867 | 0.436 | 0.195 | 0.173
3 | ABC-1 | – | 0.389 | – | 0.543 | 0.522 | 0.638 | 0.8 | 0.483 | 0.678 | 0.743 | 0.419 | 0.362 | 0.237 | 0.236 | 0.19 | 0.576 | 0.871 | – | 0.922 | 0.301
4 | BEN | 0.326 | 0.332 | 0.325 | 0.403 | 0.329 | 0.526 | 0.551 | 0.526 | 0.606 | 0.55 | 0.312 | 0.261 | 0.272 | 0.233 | 0.169 | 0.67 | 0.711 | 0.521 | 0.419 | 0.396
5 | CAL-12T | 0.4 | 0.65 | 0.93 | 0.143 | 0.408 | 0.448 | 0.39 | 0.42 | – | 0.453 | 0.646 | 0.531 | 0.188 | 0.144 | 0.191 | 0.608 | 0.712 | 0.619 | 0.177 | 0.187
6 | ChaGo-K-1 | 0.624 | 0.616 | 0.695 | 0.523 | 0.67 | 0.736 | 0.642 | 0.685 | 0.686 | 0.367 | 0.661 | 0.577 | 0.253 | 0.136 | 0.155 | 0.828 | 0.854 | 0.644 | 0.241 | 0.202
7 | EKVX | 0.735 | 0.863 | 0.912 | 0.888 | 0.95 | 0.418 | 0.437 | 0.437 | 0.388 | 0.508 | 0.717 | 0.731 | 0.66 | 0.258 | 0.149 | 0.613 | 0.877 | 0.63 | 0.614 | 0.276
8 | EMC-BAC-2 | 1.14 | 1.19 | 1.16 | 1.09 | 1.38 | 0.488 | 0.6 | 0.558 | 0.566 | 0.544 | 0.381 | 0.358 | 0.249 | 0.193 | 0.184 | 1.05 | 1.21 | 0.777 | 0.269 | 0.277
9 | EPLC-272H | 0.161 | – | 0.313 | 0.264 | 0.58 | 0.31 | 0.31 | 0.32 | 0.296 | 0.381 | 0.35 | 0.21 | 0.165 | 0.162 | 0.137 | 0.198 | 0.231 | 0.0832 | 0.0551 | 0.0884
10 | H3255 | 0.871 | 0.76 | 0.55 | 0.675 | 0.891 | 0.449 | 0.449 | 0.476 | 0.251 | 0.481 | 0.51 | 0.586 | 0.188 | 0.259 | 0.323 | 0.951 | 0.728 | 0.66 | 0.228 | 0.298
11 | HARA | 0.854 | 0.831 | 0.668 | 0.439 | 0.895 | 0.371 | 0.368 | 0.46 | 0.26 | 0.377 | 0.512 | 0.738 | 0.152 | 0.0483 | 0.0491 | 0.325 | 0.424 | 0.167 | 0.158 | 0.137
12 | HCC-15 | 0.226 | 0.256 | 0.275 | 0.16 | 0.318 | 0.704 | 0.778 | 0.706 | 0.748 | 0.786 | 0.723 | 0.699 | 0.218 | 0.102 | 0.122 | 0.653 | 0.966 | 1.03 | 0.156 | 0.149
13 | HCC-44 | 0.977 | 1.26 | 0.996 | 1.02 | 1.2 | 0.542 | 0.911 | 0.624 | 0.587 | 0.685 | 0.483 | 0.527 | 0.13 | 0.135 | 0.12 | 1.08 | 1.06 | 0.978 | 0.655 | 0.361
14 | HCC-827 | 0.602 | 0.619 | 0.447 | 0.879 | 0.702 | 0.954 | 1.03 | 0.98 | 0.929 | 1.08 | 0.715 | 0.752 | 0.853 | 0.285 | 0.195 | 0.234 | 0.217 | 0.186 | 0.182 | 0.14
15 | HOP-62 | 0.975 | 1.04 | 0.885 | 0.789 | 0.992 | 0.606 | 0.766 | 0.778 | 0.696 | 0.613 | 0.803 | 0.724 | 0.526 | 0.268 | 0.181 | 0.505 | 0.653 | 0.235 | 0.15 | 0.101
16 | LC-2-ad | 0.979 | 1.12 | 0.955 | 1.04 | 1.16 | 0.428 | 0.515 | 0.445 | 0.386 | 0.428 | 0.903 | 0.743 | 0.247 | 0.283 | 0.33 | 0.872 | 0.657 | 0.166 | 0.17 | 0.142
